Source: patent US12128016B2, “Vanin-1 inhibitor” (EDUCATIONAL FOUNDATION OF OSAKA MEDICAL AND PHARMACEUTICAL …, priority 2021, dated 2024)

How the values were obtained:
[1] = biological target: T1, Vanin-1 (Homo sapiens, UniProt O95497); assay: In vitro measurement of Vanin-1 inhibitory activity, screening using human serum with Pantothenate-AMC substrate; type: biochemical; details: for IC50: 37° C., 30 minutes incubation, Pantothenate-AMC; for Vanin-1 inhibitory activity relative to that of Comparative Example 1: ratio to Comparative Example 1
T1 construct: For use as human serum, “normal human serum” was purchased from KOHJIN BIO (product number: 12181211); tissue KOHJIN BIO 12181211; host or cells: normal human serum
T1 sequence (O95497 22-491): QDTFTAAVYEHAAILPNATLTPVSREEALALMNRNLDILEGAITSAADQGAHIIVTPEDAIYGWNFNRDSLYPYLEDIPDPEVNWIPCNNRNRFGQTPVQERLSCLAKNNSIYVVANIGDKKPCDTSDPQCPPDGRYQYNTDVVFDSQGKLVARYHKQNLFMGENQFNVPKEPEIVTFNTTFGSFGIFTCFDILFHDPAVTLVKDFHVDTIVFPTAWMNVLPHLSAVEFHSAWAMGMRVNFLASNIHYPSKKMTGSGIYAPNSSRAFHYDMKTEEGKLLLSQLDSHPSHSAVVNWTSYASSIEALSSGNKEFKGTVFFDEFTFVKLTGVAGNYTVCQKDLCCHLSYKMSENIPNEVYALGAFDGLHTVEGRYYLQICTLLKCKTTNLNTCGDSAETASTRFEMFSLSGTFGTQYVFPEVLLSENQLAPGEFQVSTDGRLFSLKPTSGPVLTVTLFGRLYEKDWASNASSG
Description: The pantotheine ketone derivatives obtained in Examples 1 to 5 and Comparative Examples 1 to 9 were used as a Vanin-1 inhibitor to measure Vanin-1 inhibitory activity in vitro as follows.
A 9 g/package phosphate buffer powder (1/15 molL^−1=66 mM, Wako Pure Chemical) was dissolved in 1 L of distilled water to produce an assay buffer. Pantothenate-AMC serving as a substrate was synthesized according to protocols as described in Analytical Biochemistry 2010; 399: 284-292. For use as human serum, “normal human serum” was purchased from KOHJIN BIO (product number: 12181211).
Vanin-1 inhibitory activity was measured in accordance with the following steps 1 to 8 of: • 1. introducing 79 μL of assay buffer in a 96-well black plate, • 2. adding 10 μL of human serum to the wells containing the assay buffer, • 3. adding 1 μL of each Vanin-1 inhibitor (10^−7 M to 10^−2 M in DMSO) or 1 μL of DMSO to the wells from the step [2.], • 4. adding 10 μL of 1 mM Pantothenate-AMC to the wells from the step [3.], • 5. measuring at Ex=390 nm and Ex=465 nm before incubation, • 6. incubating at 37° C. for 30 minutes, • 7. measuring at Ex=390 nm and Ex=465 nm, • 8. subtracting fluorescence after 0 minute incubation, from fluorescence after 30 minutes incubation, to express Vanin-1 inhibitory activity of each inhibitor in percent with respect to that of DMSO being 100%. (Results)

[2] = test system: Vanin-1; assay: In vivo measurement of Vanin-1 inhibitory activity in sera and kidney tissues using hamsters; parameters: species or system Syrian hamsters; details: hamster, 10 mg/kg subcutaneous injection; for Vanin-1 activity in kidney tissue extracts 1 hour after administration / Vanin-1 activity in kidney tissue extracts 4 hours after administration: kidney tissue extract; for Vanin-1 activity in kidney tissue extracts 1 hour after administration: 1 hour (FIG. 5b); for Vanin-1 activity in kidney tissue extracts 4 hours after administration: 4 hours (FIG. 5b); for Vanin-1 activity in sera 1 hour after administration / Vanin-1 activity in sera 4 hours after administration: serum; for Vanin-1 activity in sera 1 hour after administration: 1 hour (FIG. 5a); for Vanin-1 activity in sera 4 hours after administration: 4 hours (FIG. 5a)
Description: The pantotheine ketone derivatives obtained in Example 1 and Comparative Example 1 were used as a Vanin-1 inhibitor to measure Vanin-1 inhibitory activity in vivo as follows.
An assay buffer and substrate were the same as those used in the in vitro measurement of activity described above. Hamsters used were 6-week-old male Syrian hamsters purchased from Japan SLC.
The pantotheine ketone derivatives of Example 1 and Comparative Example 1 at a dose of 10 mg/kg were each administered by subcutaneous injection in the backs of different hamsters, and 1 hour and 4 hours after the administration, blood collection and kidney removal were performed under anesthesia. The blood and kidney of the normal hamsters were indicated as Normal. The blood was refrigerated overnight at 4° C. and then centrifuged at 3000 rpm for 20 minutes at 4° C., and the supernatant was used as serum. The kidney was homogenized in an assay buffer in an amount 10 times the tissue weight, and centrifuged at 8000 rpm for 30 minutes at 4° C., and the supernatant was used as a kidney tissue extract. Proteins in the kidney tissue were quantified by using a BCA protein assay (Thermo Fishers Scientific).
Vanin-1 inhibitory activity was measured in accordance with the following steps 1 to 7 of: • 1. introducing 80 μL of assay buffer in a 96-well black plate, • 2. adding 10 μL of serum or kidney tissue extract to the wells containing the assay buffer, • 3. adding 10 μL of 1 mM Pantothenate-AMC to the wells from the step [2.], • 4. measuring at Ex=390 nm and Ex=465 nm before incubation, • 5. incubating at 37° C. for 30 minutes, • 6. measuring at Ex=390 nm and Ex=465 nm, • 7. subtracting fluorescence after 0 minute incubation, from fluorescence value after 30 minutes incubation, and calculating enzyme unit (U) using as an index the amount of AMC produced per minute with respect to the fluorescence value of 40 μM AMC as a reference. The Vanin-1 activity in the kidney tissue extracts was further calculated to normalize by the protein concentration. (Results)

[3] = test system: vascular intimal thickening after aorta transplantation; details: rat; 3 mg/mL in drinking water (Non-patent literature 2); cited from earlier work

Structure (SMILES)	IC50 [1]	Vanin-1 inhibitory activity in vitro (comparison in words, FIGS. 1 to 4) [1]	Vanin-1 inhibitory activity relative to that of Comparative Example 1 [1]	Vanin-1 activity in kidney tissue extracts 1 hour after administration [2]	Vanin-1 activity in kidney tissue extracts 4 hours after administration [2]	Vanin-1 activity in sera 1 hour after administration [2]	Vanin-1 activity in sera 4 hours after administration [2]	Effect on vascular intimal thickening after aorta transplantation [3]
C=C=CC(=O)CCNC(=O)[C@H](O)C(C)(C)CO [Comparative Example 9]	–	lower than that of Comparative Example 1	–	–	–	–	–	–
C/C(O)=C/C(=O)CCNC(=O)[C@H](O)C(C)(C)CO [Comparative Example 8]	–	lower than that of Comparative Example 1	–	–	–	–	–	–
CC(C)(CO)[C@@H](O)C(=O)NCCC(=O)Cc1cccc2ccccc12 [Comparative Example 7]	–	lower than that of Comparative Example 1	–	–	–	–	–	–
CC(C)(CO)[C@@H](O)C(=O)NCCC(=O)Cc1ccccc1 [Comparative Example 1, reference compound]	780 nM	–	–	same as the normal value	same as the normal value	suppressed	returned to normal value	suppressive effect on vascular intimal thickening

Continued, in another order:

IC50 [1]	Vanin-1 inhibitory activity in vitro (comparison in words, FIGS. 1 to 4) [1]	Vanin-1 inhibitory activity relative to that of Comparative Example 1 [1]	Structure (SMILES)	Vanin-1 activity in kidney tissue extracts 1 hour after administration [2]	Vanin-1 activity in kidney tissue extracts 4 hours after administration [2]	Vanin-1 activity in sera 1 hour after administration [2]	Vanin-1 activity in sera 4 hours after administration [2]	Effect on vascular intimal thickening after aorta transplantation [3]
35 nM	very high Vanin-1 inhibitory activity	about 20 times	CC(C)(CO)[C@@H](O)C(=O)NCCC(=O)Cc1ccc(OC(F)(F)F)cc1 [Example 1, (R)-2,4-dihydroxy-3,3-dimethyl-N-[3-oxo-4-(4-trifluoromethoxyphenyl)butyl]butanamide]	able to inhibit Vanin-1	returned to the normal value	suppressed Vanin-1 activity lower than that of Comparative Example 1	suppressed below the normal value	–
120 nM	very high Vanin-1 inhibitory activity	about 6 times	CC(C)(CO)[C@@H](O)C(=O)NCCC(=O)Cc1ccc(F)cc1 [Example 2]	–	–	–	–	–
–	lower than that of Comparative Example 1	–	CC(C)(CO)[C@@H](O)C(=O)NCCC(=O)Cc1ccc2ccccc2c1 [Comparative Example 6]	–	–	–	–	–
